This is an account of results in ChEMBL document CHEMBL3872220, “Amphiphilic xanthones as a potent chemical entity of anti-mycobacterial agents with membrane-targeting properties” (Eur J Med Chem, 2016).

≈ marks a conversion by molar mass, not a printed value.

One data set relates to Mycobacteroides chelonae. As to the kind of experiment: Antimycobacterial activity against Mycobacterium chelonae by CLSI method. It counts as functional.
Data set [1] has as its system Mycolicibacterium smegmatis. The experiment in a line: Antimycobacterial activity against Mycobacterium smegmatis by CLSI method. It counts as functional.
Data set [2] relates to Mycobacterium tuberculosis. The experiment in a line: Antimycobacterial activity against Mycobacterium tuberculosis H37Ra measured after 7 days by alamar blue assay. The format is functional. The following applies: 168 h. A general note: Alamar Blue is a resazurin reagent that responds to reducing activity.
The subject of the next data set is Mycobacterium xenopi. The experiment in a line: Antimycobacterial activity against Mycobacterium xenopi by CLSI method. It counts as functional.
The test system of data set [3] is Mycobacterium intracellulare. As to the kind of experiment: Antimycobacterial activity against Mycobacterium intracellulare by CLSI method. It counts as functional.
A short description of data set [4]: Cytotoxicity against human MRC5 SV2 cells measured after 72 hrs by resazurin based fluorescence assay. The format is toxicity, cell-based.
For data set [5], the system named is Mycolicibacterium smegmatis. As to the kind of experiment: Antimycobacterial activity against Mycobacterium smegmatis MC2 155 after 24 hrs by broth dilution assay. The format is functional. As to conditions: str. MC2 155, 24 h.
Data set [6] deals with Mycolicibacterium smegmatis. The experiment in a line: Bactericidal activity against Mycobacterium smegmatis MC2 155 assessed as log reduction in bacterial colonies up to 8 times MIC measured after 24 hrs by time-kill assay. The format is functional, str. MC2 155.
Data set [7] in a line: Oral bioavailability in Sprague-Dawley rat. It counts as ADME, organism-based. As to conditions: in vivo.

As to `COc1c(O)cc2oc3cc(O)c(CC=C(C)C)c(O)c3c(=O)c2c1CC=C(C)C` [MANGOSTIN], the MIC was determined as 3.7 µM (≈ 1.52 µg/mL) in the data set on Mycobacteroides chelonae; 3.7 µM (≈ 1.52 µg/mL) in data set [1]; 6.25 µg/mL (≈ 15.2 µM) in [2]; 3.7 µM (≈ 1.52 µg/mL) in the data set with Mycobacterium xenopi; 3.7 µM (≈ 1.52 µg/mL) in [3]. In addition, the CC50 at 72 h in data set [4] is 7.5 µM.

In [5], `NNC(=O)c1ccncc1` [ISONIAZID] returned an MIC90 of 15 µM (≈ 2.06 µg/mL). Moreover, the Activity in [6] stood at 1.2.

Turning to `CO[C@H]1/C=C/O[C@@]2(C)Oc3c(C)c(O)c4c(c3C2=O)C2=NC3(CCN(CC(C)C)CC3)NC2=C(NC(=O)/C(C)=C\C=C\[C@H](C)[C@H](O)[C@@H](C)[C@@H](O)[C@@H](C)[C@H](OC(C)=O)[C@@H]1C)C4=O` [RIFABUTIN], the bioavailability in data set [7] is 20%.

For orientation: MIC means the smallest concentration in the dilution series that meets the test's criterion for growth inhibition. A higher MIC goes with a need for much substance. In general, CC50 refers to the concentration at which the toxic effect on the cells reaches its halfway point. Read a low CC50 as harm at low concentration. As usually defined, the MIC90 is an inhibitory concentration at the 90% level, which refers to growth in some studies and to a panel of isolates in others. Read a high MIC90 as lower susceptibility. A word on the bioavailability: it is the share of a dose that reaches the circulation, judged against a reference dose that is usually intravenous. High values mean much systemic uptake, low ones little systemic uptake.
